Results published in patent US9833451B2 (priority 2007, dated 2017).
Structures can show the parent of a compound that is named as a salt. Where two headings read alike, the source gives them in different places.

Columns and labels:
[1] = cited from earlier work
[2] = pulmonary delivery; cited from earlier work
[3] = clinical; details: for Concentration equivalent to peak plasma concentration (Cmax): human plasma; for Cmax: human, in vivo
Excerpt: The inhaled doses represent the expected systemic delivered dose and were estimated from the fine particle dose delivered ex-actuator.

[4] = system: 5-HT1B; test: Radioligand receptor binding at concentrations equivalent to Cmax
Excerpt: (§1) “(h)” represents cloned human receptor subtypes.
(§2) Table 2 presents in vitro concentrations equivalent to Cmax.

[5] = target: 5-HT1D receptors (Homo sapiens, UniProt P28221); test: as above; details: following inhalation, compared with IV
Excerpt: as §1, §2

[6] = target: T1, 5-HT3 receptors (Homo sapiens, UniProt P46098); test: as above; details: all DHE delivery routes investigated, <20% classed as inactive
Excerpt: as §1, §2

[7] = target: D2 receptor (Homo sapiens, UniProt P14416); test: as above
Excerpt: “(h)” represents cloned human receptor subtypes and “NS” indicates non-specific binding.
as §2

[8] = target: T1, 5-HT3 receptors; test: Functional assays at 5-HT3 receptors; format: biochemical
Excerpt: 5-HT3 receptors are known to be implicated in nausea. Antagonists at these receptors, such as ondansetron and granisetron prevent chemotherapy-induced nausea and vomiting.

[9] = target: 5-HT1B receptors (Homo sapiens, UniProt P28222); test: Selective agonism at various concentrations of DHE (FIG. 5); format: biochemical; details: 5 μm control, 77.6 nM (IV Cmax), 6.25 nM (4 inhalations Cmax), 0.25 nM
Excerpt: (§3) Agonists of 5-HT1B subtype receptors are known to be useful in the treatment of migraine and associated symptoms. 5-HT2B receptors are known to play a triggering role in the onset of migraine.

[10] = target: 5-HT2B receptors (Homo sapiens, UniProt P41595); test: as above; format: biochemical; details: orally-inhaled DHE concentrations (6.25 nM at Cmax of 4 inhalations)
Excerpt: as §3

[11] = Side effects in clinical study of IV versus inhaled DHE; format: in vivo, human
Excerpt: The inventors have discovered that these slightly delayed, lower peak pharmacokinetic profiles are associated with minimized side effects.

[12] = system: migraine pain in subjects; test: Relief from migraine pain after inhaled DHE (FIG. 1); format: in vivo, human; details: administration giving the two lower peak plasma profiles of FIG. 2
[13] = target: Serotonin receptor subtype 1A (Homo sapiens, UniProt P08908); details: read-out: Affinity IC50; cited from earlier work
[14] = target: Serotonin receptor subtype 1B (Homo sapiens, UniProt P28222); details: read-out: Affinity IC50; cited from earlier work
[15] = target: Serotonin receptor subtype 1D (Homo sapiens, UniProt P28221); details: read-out: Affinity IC50; cited from earlier work
[16] = target: Serotonin receptor subtype 1E (Homo sapiens, UniProt P28566); details: read-out: Affinity IC50; cited from earlier work
[17] = target: Serotonin receptor subtype 1F (Homo sapiens, UniProt P30939); details: read-out: Affinity IC50; cited from earlier work
[18] = target: Serotonin receptor subtype 2C (Homo sapiens, UniProt P28335); details: read-out: Affinity IC50; cited from earlier work
[19] = target: Serotonin receptor subtype 3 (Homo sapiens, UniProt P46098); details: read-out: Affinity IC50; cited from earlier work
[20] = target: Serotonin receptor subtype 5; details: read-out: Affinity IC50; cited from earlier work
[21] = target: Adrenergic receptor subtype α1a (Homo sapiens, UniProt P35348); details: read-out: Affinity IC50; cited from earlier work
[22] = target: Adrenergic receptor subtype α1b (Homo sapiens, UniProt P35368); details: read-out: Affinity IC50; cited from earlier work
[23] = target: Adrenergic receptor subtype β1 (Homo sapiens, UniProt P08588); details: read-out: Affinity IC50; cited from earlier work
[24] = target: Adrenergic receptor subtype β3 (Homo sapiens, UniProt P13945); details: read-out: Affinity IC50; cited from earlier work
[25] = target: Dopaminergic receptor subtype D2 (Homo sapiens, UniProt P14416); details: read-out: Affinity IC50; cited from earlier work
[26] = target: Dopaminergic receptor subtype D3 (Homo sapiens, UniProt P35462); details: read-out: Affinity IC50; cited from earlier work
[27] = target: Dopaminergic receptor subtype D4 (Homo sapiens, UniProt P21917); details: read-out: Affinity IC50; cited from earlier work
[28] = given subcutaneously at a concentration of only 1.5 mM; cited from earlier work
[29] = system: muscarinic (M) receptors; details: cited from earlier work
[30] = after inhalable administration of DHE

T1 sequence (P46098 24-478): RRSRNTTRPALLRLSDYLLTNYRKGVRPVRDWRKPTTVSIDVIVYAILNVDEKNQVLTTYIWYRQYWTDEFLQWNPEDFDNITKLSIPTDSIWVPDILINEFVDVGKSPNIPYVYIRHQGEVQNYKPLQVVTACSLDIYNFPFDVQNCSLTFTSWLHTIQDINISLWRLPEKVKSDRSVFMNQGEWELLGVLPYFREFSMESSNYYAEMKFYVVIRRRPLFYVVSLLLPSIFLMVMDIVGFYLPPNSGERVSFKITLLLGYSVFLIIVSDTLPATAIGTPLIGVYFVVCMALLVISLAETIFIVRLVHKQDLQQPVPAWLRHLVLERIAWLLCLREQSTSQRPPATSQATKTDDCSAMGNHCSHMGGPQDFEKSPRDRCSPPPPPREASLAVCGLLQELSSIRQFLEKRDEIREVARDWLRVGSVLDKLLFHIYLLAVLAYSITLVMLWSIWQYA
Chain of D2 receptor (P14416 whole entry): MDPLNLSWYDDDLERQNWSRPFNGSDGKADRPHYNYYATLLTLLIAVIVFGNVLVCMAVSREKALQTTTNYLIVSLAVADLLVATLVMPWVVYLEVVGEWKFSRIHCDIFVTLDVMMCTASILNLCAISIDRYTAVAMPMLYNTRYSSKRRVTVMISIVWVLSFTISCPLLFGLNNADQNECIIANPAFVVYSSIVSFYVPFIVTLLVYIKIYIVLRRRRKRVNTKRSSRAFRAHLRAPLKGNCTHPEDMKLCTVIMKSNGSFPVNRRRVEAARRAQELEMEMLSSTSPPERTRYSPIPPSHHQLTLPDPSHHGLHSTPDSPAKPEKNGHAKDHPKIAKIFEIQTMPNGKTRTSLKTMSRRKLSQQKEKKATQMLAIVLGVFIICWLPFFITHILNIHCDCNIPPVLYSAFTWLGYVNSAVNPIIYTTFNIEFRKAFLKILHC
Chain of Adrenergic receptor subtype α1a (P35348 whole entry): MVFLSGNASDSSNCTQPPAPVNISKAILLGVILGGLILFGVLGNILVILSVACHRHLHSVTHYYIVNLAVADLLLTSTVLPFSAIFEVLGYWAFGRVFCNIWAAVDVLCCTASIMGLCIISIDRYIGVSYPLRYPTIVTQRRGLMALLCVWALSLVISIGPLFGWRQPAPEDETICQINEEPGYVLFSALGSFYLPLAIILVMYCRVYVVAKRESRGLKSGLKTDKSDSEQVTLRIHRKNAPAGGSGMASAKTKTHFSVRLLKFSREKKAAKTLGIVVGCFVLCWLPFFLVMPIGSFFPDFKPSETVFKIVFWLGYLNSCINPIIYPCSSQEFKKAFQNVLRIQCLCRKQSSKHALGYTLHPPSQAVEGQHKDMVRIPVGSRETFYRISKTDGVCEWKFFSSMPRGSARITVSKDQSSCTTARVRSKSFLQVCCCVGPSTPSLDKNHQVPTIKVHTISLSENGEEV
Chain of Serotonin receptor subtype 3 (P46098 24-478): as the sequence (P46098 24-478) above
Chain of Serotonin receptor subtype 1E (P28566 whole entry): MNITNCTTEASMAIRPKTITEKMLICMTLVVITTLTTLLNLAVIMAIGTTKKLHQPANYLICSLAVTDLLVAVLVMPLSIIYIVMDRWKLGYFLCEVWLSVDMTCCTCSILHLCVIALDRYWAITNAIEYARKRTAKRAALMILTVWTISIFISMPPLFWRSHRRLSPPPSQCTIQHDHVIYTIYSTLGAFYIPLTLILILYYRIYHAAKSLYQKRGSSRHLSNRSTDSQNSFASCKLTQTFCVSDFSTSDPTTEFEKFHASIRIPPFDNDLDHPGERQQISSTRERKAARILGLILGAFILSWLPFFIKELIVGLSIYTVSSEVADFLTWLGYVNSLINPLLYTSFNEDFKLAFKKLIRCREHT
Chain of Dopaminergic receptor subtype D3 (P35462 whole entry): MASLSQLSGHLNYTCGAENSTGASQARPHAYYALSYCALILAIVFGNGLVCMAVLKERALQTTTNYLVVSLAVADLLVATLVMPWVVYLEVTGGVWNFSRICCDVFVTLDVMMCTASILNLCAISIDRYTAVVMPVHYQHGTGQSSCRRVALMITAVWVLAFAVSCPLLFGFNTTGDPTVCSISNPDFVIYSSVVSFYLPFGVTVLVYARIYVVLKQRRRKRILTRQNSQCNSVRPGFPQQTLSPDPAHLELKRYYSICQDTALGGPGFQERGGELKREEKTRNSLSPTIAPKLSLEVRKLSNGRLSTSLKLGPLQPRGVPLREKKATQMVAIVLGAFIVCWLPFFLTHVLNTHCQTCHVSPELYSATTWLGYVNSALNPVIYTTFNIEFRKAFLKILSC
Chain of Serotonin receptor subtype 1D (P28221 whole entry): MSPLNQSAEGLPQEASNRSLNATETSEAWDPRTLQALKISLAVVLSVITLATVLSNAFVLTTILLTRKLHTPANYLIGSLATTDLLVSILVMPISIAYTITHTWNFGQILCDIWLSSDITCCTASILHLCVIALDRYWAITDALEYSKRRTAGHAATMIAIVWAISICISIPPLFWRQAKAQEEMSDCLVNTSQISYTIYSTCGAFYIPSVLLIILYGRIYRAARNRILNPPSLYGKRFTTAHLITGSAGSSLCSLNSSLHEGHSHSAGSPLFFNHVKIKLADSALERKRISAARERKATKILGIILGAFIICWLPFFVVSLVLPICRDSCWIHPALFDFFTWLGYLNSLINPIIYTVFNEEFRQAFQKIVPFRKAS
Chain of 5-HT1D receptors (P28221 whole entry): as above
Chain of Serotonin receptor subtype 2C (P28335 33-458): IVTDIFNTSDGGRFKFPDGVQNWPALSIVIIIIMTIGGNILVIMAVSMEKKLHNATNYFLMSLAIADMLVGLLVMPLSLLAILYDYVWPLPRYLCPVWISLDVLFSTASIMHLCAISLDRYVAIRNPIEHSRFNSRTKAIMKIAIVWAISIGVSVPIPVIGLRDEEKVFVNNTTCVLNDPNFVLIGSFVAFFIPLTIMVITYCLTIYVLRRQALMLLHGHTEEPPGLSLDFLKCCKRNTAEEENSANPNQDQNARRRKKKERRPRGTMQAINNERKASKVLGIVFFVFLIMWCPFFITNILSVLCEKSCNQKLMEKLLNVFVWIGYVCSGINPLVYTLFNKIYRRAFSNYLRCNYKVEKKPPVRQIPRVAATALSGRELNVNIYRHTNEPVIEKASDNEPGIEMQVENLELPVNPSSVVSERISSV
Chain of Dopaminergic receptor subtype D4 (P21917 whole entry): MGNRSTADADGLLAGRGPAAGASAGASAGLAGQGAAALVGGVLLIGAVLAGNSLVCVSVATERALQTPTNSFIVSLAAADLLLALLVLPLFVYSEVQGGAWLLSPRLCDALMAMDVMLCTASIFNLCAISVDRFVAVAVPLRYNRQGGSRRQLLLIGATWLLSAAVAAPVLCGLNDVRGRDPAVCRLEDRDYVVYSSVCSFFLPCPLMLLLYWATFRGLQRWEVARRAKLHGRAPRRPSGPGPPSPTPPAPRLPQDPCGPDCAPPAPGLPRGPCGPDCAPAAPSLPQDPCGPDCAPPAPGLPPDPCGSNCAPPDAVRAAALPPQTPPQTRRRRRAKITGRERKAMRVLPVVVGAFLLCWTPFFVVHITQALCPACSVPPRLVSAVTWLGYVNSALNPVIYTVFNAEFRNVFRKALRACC
Chain of Serotonin receptor subtype 1F (P30939 whole entry): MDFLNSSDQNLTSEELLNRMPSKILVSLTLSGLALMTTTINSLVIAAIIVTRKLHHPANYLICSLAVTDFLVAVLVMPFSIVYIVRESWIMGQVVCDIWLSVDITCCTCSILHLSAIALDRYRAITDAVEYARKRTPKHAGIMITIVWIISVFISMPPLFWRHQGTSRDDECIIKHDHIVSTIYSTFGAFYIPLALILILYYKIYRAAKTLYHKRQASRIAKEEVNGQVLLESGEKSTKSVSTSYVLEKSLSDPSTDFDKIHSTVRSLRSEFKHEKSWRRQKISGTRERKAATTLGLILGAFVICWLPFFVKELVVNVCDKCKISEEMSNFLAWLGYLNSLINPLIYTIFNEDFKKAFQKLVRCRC
Chain of Serotonin receptor subtype 1A (P08908 whole entry): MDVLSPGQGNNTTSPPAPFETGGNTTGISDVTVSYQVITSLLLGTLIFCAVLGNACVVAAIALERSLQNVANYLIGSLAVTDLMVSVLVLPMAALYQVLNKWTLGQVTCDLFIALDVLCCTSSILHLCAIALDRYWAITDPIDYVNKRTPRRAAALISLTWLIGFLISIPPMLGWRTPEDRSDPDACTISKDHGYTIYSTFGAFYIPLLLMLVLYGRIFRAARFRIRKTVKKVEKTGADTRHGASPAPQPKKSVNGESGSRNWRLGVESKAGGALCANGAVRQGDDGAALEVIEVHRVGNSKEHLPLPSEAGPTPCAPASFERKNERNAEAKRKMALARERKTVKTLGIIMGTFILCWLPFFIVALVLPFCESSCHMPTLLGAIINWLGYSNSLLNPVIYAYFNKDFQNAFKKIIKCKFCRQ
Chain of 5-HT2B receptors (P41595 whole entry): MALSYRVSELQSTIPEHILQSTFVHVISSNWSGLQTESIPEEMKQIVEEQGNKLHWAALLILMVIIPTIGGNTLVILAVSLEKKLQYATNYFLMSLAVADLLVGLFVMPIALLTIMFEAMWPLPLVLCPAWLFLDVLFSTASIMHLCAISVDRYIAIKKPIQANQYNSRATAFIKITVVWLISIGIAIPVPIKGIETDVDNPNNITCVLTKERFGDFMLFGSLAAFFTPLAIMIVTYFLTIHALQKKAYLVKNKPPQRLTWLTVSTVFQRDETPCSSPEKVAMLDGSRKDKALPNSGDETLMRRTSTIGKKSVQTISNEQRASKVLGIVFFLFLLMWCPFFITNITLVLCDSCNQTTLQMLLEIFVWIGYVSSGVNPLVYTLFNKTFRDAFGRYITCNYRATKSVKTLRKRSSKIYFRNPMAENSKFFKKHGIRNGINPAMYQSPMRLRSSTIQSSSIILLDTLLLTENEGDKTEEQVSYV
Chain of Dopaminergic receptor subtype D2 (P14416 whole entry): as the sequence (P14416 whole entry) above

SMILES: CN1C[C@H](C(=O)N[C@]2(C)O[C@@]3(O)[C@@H]4CCCN4C(=O)[C@H](Cc4ccccc4)N3C2=O)C=C2c3cccc4[nH]cc(c34)C[C@H]21 [Ergotamine, ergotamine tartrate]
- onset of therapeutic efficacy ([1]; intranasal): 45 min
- onset of therapeutic efficacy ([1]; oral or sublingual delivery): 120 min
- bioavailability [2]: up to 92%

SMILES: CN1C[C@H](C(=O)N[C@]2(C)O[C@@]3(O)[C@@H]4CCC(O)N4C(=O)[C@H](Cc4ccccc4)N3C2=O)C[C@@H]2c3cccc4[nH]cc(c34)C[C@H]21 (stereo partly drawn) [8′-OH Dihydroergotamine]
- Concentration equivalent to peak plasma concentration (Cmax) ([3]; after DHE 0.44 mg inhaled): 0.058 ng/mL
- Concentration equivalent to peak plasma concentration (Cmax) ([3]; after DHE 0.88 mg inhaled): 0.149 ng/mL
- Concentration equivalent to peak plasma concentration (Cmax) ([3]; after DHE 1 mg IV (infusion over 3 minutes)): 0.378 ng/mL
- Tmax of primary metabolite in circulating plasma [3, 30]: less than 90 minutes
- peak plasma concentration of metabolite at Cmax [3, 30]: less than 1,000 pg/ml

SMILES: CN1C[C@H](C(=O)N[C@]2(C)O[C@@]3(O)[C@@H]4CCCN4C(=O)[C@H](Cc4ccccc4)N3C2=O)C[C@@H]2c3cccc4[nH]cc(c34)C[C@H]21 [DHE, dihydroergotamine mesylate]
- binding at 5-HT1B ([4]; Cmax following 0.88 mg inhaled dosing): 100%
- binding at 5-HT1B ([4]; Cmax following 1 mg intravenous dosing): 100%
- apparent binding at 5-HT1D receptors [5]: lower than IV
- binding at 5-HT3 receptors [6]: < 20%
- receptor binding in D2 assays ([7]; IV dose Cmax levels): 50%
- binding in D2 assays ([7]; after inhaled dosing (Cmax levels)): no binding affinity
- agonist or antagonist activity at 5-HT3 receptors [8]: lack of agonist or antagonist activity
- agonism at 5-HT1B receptors [9]: maintained across all concentrations
- agonism at 5-HT2B receptors [10]: agonism is absent
- time to rapid plasma levels ([3]; all three methods of administration (FIG. 2)): ≤ 20 min
- difference in AUC ([3]; between 1 mg IV and 0.88 mg inhaled): 1.2 fold
- Cmax ([3]; inhaled or intranasal, 0.44 mg): 1.34 ng/mL
- Cmax ([3]; inhaled or intranasal, 0.88 mg): 4.29 ng/mL
- Cmax ([3]; iv, 1 mg): 53.2 ng/mL
- side effects observed ([11]; 0.44 mg dose inhaled): no side effects were observed
- Dizziness, subjects (%) ([11]; 0.88 mg DHE Inhaled, n = 12): 1 (8) (%)
- Feeling hot, subjects (%) ([11]; 0.88 mg DHE Inhaled, n = 12): 0 (%)
- Nausea, subjects (%) ([11]; 0.88 mg DHE Inhaled, n = 12): 1 (8) (%)
- Paresthesia, subjects (%) ([11]; 0.88 mg DHE Inhaled, n = 12): 0 (%)
- Vomiting, subjects (%) ([11]; 0.88 mg DHE Inhaled, n = 12): 0 (%)
- side effects observed ([11]; 0.88 mg dose inhaled): only minor side effects
- Dizziness, number considered by investigator related to study drug (r) ([11]; 1 mg DHE IV, n = 16): 7
- Dizziness, subjects (%) ([11]; 1 mg DHE IV, n = 16): 7 (44) (%)
- Feeling hot, number considered by investigator related to study drug (r) ([11]; 1 mg DHE IV, n = 16): 3
- Feeling hot, subjects (%) ([11]; 1 mg DHE IV, n = 16): 3 (19) (%)
- Nausea, number considered by investigator related to study drug (r) ([11]; 1 mg DHE IV, n = 16): 10
- Nausea, subjects (%) ([11]; 1 mg DHE IV, n = 16): 10 (63) (%)
- Paresthesia, number considered by investigator related to study drug (r) ([11]; 1 mg DHE IV, n = 16): 5
- Paresthesia, subjects (%) ([11]; 1 mg DHE IV, n = 16): 5 (31) (%)
- Vomiting, number considered by investigator related to study drug (r) ([11]; 1 mg DHE IV, n = 16): 2
- Vomiting, subjects (%) ([11]; 1 mg DHE IV, n = 16): 2 (13) (%)
- side effects observed ([11]; 1.0 mg IV DHE): significant side effects including nausea and emesis
- incidence of nausea ([11]; inhaled): 8%
- incidence of nausea ([11]; intravenous administration): 63%
- time to rapid pain relief [12]: ≤ 10 min
- IC50 [13]: 0.4 nM
- IC50 [14]: 0.7 nM
- IC50 [15]: 0.5 nM
- IC50 [16]: 1100 nM
- IC50 [17]: 180 nM
- IC50 [18]: 1.3 nM
- IC50 [19]: 3700 nM
- IC50 [20]: 60 nM
- IC50 [21]: 6.6 nM
- IC50 [22]: 8.3 nM
- IC50 [23]: 3100 nM
- IC50 [24]: 271 nM
- IC50 [25]: 1.2 nM
- IC50 [26]: 6.4 nM
- IC50 [27]: 8.7 nM
- treated patients with nausea [28]: ~16%
- binding activity at muscarinic (M) receptors [29]: minimal binding activity
